Experimental data published in ChEMBL document CHEMBL1201862, “PubChem BioAssay data set” (2004).
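A five-concentration, 48-hour dose response in 96-well plates underlies each endpoint, interpolated linearly between surrounding concentrations. Abbreviation: GI50, concentration required for 50% inhibition of growth.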 The source made the active and inactive calls. Rule as the data show it: active = GI50 up to about 1.1 µM and inactive = higher.

Tests used:
Experiment in all cases: NCI-60 cell line screen, 48 h
COLO 205 = system: COLO 205
UO-31 = system: UO-31
PC-3 = system: PC-3
SNB-19 = system: SNB-19
ACHN = system: ACHN
TK-10 = system: TK-10
SR = system: SR
OVCAR-8 = system: OVCAR-8
CAKI-1 = system: CAKI-1
NCI/ADR-RES = system: NCI/ADR-RES
HCT-15 = system: HCT-15
SNB-75 = system: SNB-75
SK-MEL-5 = system: SK-MEL-5
NCI-H460 = system: NCI-H460
SF-539 = system: SF-539
MDA-N = system: MDA-N
NCI-H522 = system: NCI-H522
786-0 = system: 786-0
T47D = system: T47D
HCT-116 = system: HCT-116
EKVX = system: EKVX
KM12 = system: KM12
SW-620 = system: SW-620
SK-OV-3 = system: SK-OV-3
HL-60 = system: HL-60
Malme-3M = system: Malme-3M
HOP-92 = system: HOP-92
RPMI-8226 = system: RPMI-8226
SK-MEL-2 = system: SK-MEL-2
HCC 2998 = system: HCC 2998
MCF7 = system: MCF7
SN12C = system: SN12C
RXF 393 = system: RXF 393
MDA-MB-231 = system: MDA-MB-231
CCRF-CEM = system: CCRF-CEM
K562 = system: K562
HT-29 = system: HT-29
IGROV-1 = system: IGROV-1
A549 = system: A549
NCI-H226 = system: NCI-H226
OVCAR-3 = system: OVCAR-3
SF-268 = system: SF-268
SK-MEL-28 = system: SK-MEL-28
Hs-578T = system: Hs-578T
MDA-MB-435 = system: MDA-MB-435
MOLT-4 = system: MOLT-4
SF-295 = system: SF-295
OVCAR-4 = system: OVCAR-4
M14 = system: M14
UACC-257 = system: UACC-257
U-251 = system: U-251
DU-145 = system: DU-145
NCI-H23 = system: NCI-H23
BT-549 = system: BT-549
UACC-62 = system: UACC-62
HOP-62 = system: HOP-62
LOX IMVI = system: LOX IMVI
A498 = system: A498
OVCAR-5 = system: OVCAR-5

Cc1ccc(C2=Nc3cccc4cccc(c34)N2)cc1 was tested. Which GI50 (COLO 205) did it give?
The GI50 was > 100 µM (inactive).

And the GI50 (UO-31)?
Its GI50 is > 100 µM (inactive).

And the GI50 (PC-3)?
Its GI50 is > 100 µM (inactive).

What about the GI50 (SNB-19) of the same compound?
The GI50 was > 100 µM (inactive).

And the GI50 (ACHN)?
The GI50 was > 100 µM (inactive).

And the GI50 (TK-10)?
The GI50 was > 100 µM (inactive).

And the GI50 (SR)?
Its GI50 is > 100 µM (inactive).

What about the GI50 (OVCAR-8) of the same compound?
The GI50 was > 100 µM (inactive).

What about the GI50 (CAKI-1) of the same compound?
Its GI50 is > 100 µM (inactive).

And the GI50 (NCI/ADR-RES)?
The GI50 was > 100 µM (inactive).

And the GI50 (HCT-15)?
Its GI50 is greater than 100 µM.

What about the GI50 (SNB-75) of the same compound?
Its GI50 is > 100 µM (inactive).

And the GI50 (SK-MEL-5)?
The GI50 was > 100 µM (inactive).

What about the GI50 (NCI-H460) of the same compound?
The GI50 was > 100 µM (inactive).

And the GI50 (SF-539)?
The GI50 was > 100 µM (inactive).

And the GI50 (MDA-N)?
The GI50 was > 100 µM (inactive).

What about the GI50 (NCI-H522) of the same compound?
The GI50 was > 100 µM (inactive).

And the GI50 (786-0)?
Its GI50 is > 100 µM (inactive).

And the GI50 (T47D)?
The GI50 was > 100 µM (inactive).

What about the GI50 (HCT-116) of the same compound?
Its GI50 is > 100 µM (inactive).

And the GI50 (EKVX)?
The GI50 was > 100 µM (inactive).

What about the GI50 (KM12) of the same compound?
The GI50 was > 100 µM (inactive).

What about the GI50 (SW-620) of the same compound?
The GI50 was > 100 µM (inactive).

What about the GI50 (SK-OV-3) of the same compound?
The GI50 was > 100 µM (inactive).

What about the GI50 (HL-60) of the same compound?
Its GI50 is > 100 µM (inactive).

And the GI50 (Malme-3M)?
The GI50 was > 100 µM (inactive).

And the GI50 (HOP-92)?
The GI50 was > 100 µM (inactive).

And the GI50 (RPMI-8226)?
The GI50 was > 100 µM (inactive).

And the GI50 (SK-MEL-2)?
The GI50 was > 100 µM (inactive).

What about the GI50 (HCC 2998) of the same compound?
Its GI50 is > 100 µM (inactive).

And the GI50 (MCF7)?
Its GI50 is > 100 µM (inactive).

And the GI50 (SN12C)?
Its GI50 is > 100 µM (inactive).

What about the GI50 (RXF 393) of the same compound?
The GI50 was > 100 µM (inactive).

And the GI50 (MDA-MB-231)?
The GI50 was > 100 µM (inactive).

What about the GI50 (CCRF-CEM) of the same compound?
Its GI50 is > 100 µM (inactive).

What about the GI50 (K562) of the same compound?
Its GI50 is > 100 µM (inactive).

And the GI50 (HT-29)?
Its GI50 is > 100 µM (inactive).

And the GI50 (IGROV-1)?
The GI50 was > 100 µM (inactive).

And the GI50 (A549)?
Its GI50 is > 100 µM (inactive).

What about the GI50 (NCI-H226) of the same compound?
The GI50 was > 100 µM (inactive).

And the GI50 (OVCAR-3)?
Its GI50 is > 100 µM (inactive).

And the GI50 (SF-268)?
The GI50 was > 100 µM (inactive).

What about the GI50 (SK-MEL-28) of the same compound?
The GI50 was > 100 µM (inactive).

And the GI50 (Hs-578T)?
Its GI50 is > 100 µM (inactive).

What about the GI50 (MDA-MB-435) of the same compound?
Its GI50 is > 100 µM (inactive).

What about the GI50 (MOLT-4) of the same compound?
The GI50 was > 100 µM (inactive).

And the GI50 (SF-295)?
The GI50 was > 100 µM (inactive).

And the GI50 (OVCAR-4)?
Its GI50 is > 100 µM (inactive).

And the GI50 (M14)?
Its GI50 is > 100 µM (inactive).

What about the GI50 (UACC-257) of the same compound?
The GI50 was > 100 µM (inactive).

And the GI50 (U-251)?
The GI50 was > 100 µM (inactive).

And the GI50 (DU-145)?
The GI50 was > 100 µM (inactive).

And the GI50 (NCI-H23)?
Its GI50 is > 100 µM (inactive).

What about the GI50 (BT-549) of the same compound?
Its GI50 is > 100 µM (inactive).

And the GI50 (UACC-62)?
Its GI50 is > 100 µM (inactive).

What about the GI50 (HOP-62) of the same compound?
The GI50 was > 100 µM (inactive).

And the GI50 (LOX IMVI)?
Its GI50 is > 100 µM (inactive).

How did the GI50 (COLO 205) turn out when CN(C)CCNC1=Nc2ccccc2C(=S)N2CSCC12 (configuration not stated) was run?
Its GI50 is > 100 µM (inactive).

And the GI50 (UO-31)?
Its GI50 is 58.2 µM (inactive).

And the GI50 (PC-3)?
The GI50 was > 100 µM (inactive).

What about the GI50 (SNB-19) of the same compound?
Its GI50 is > 100 µM (inactive).

And the GI50 (ACHN)?
The GI50 was > 100 µM (inactive).

And the GI50 (TK-10)?
Its GI50 is > 100 µM (inactive).

And the GI50 (SR)?
The GI50 was > 100 µM (inactive).

And the GI50 (OVCAR-8)?
Its GI50 is > 100 µM (inactive).

What about the GI50 (CAKI-1) of the same compound?
The GI50 was > 100 µM (inactive).

And the GI50 (A498)?
The GI50 was > 100 µM (inactive).

What about the GI50 (OVCAR-5) of the same compound?
Its GI50 is > 100 µM (inactive).

And the GI50 (NCI/ADR-RES)?
Its GI50 is > 100 µM (inactive).

What about the GI50 (HCT-15) of the same compound?
Its GI50 is greater than 100 µM.

What about the GI50 (SNB-75) of the same compound?
The GI50 was > 100 µM (inactive).

And the GI50 (SK-MEL-5)?
Its GI50 is > 100 µM (inactive).

What about the GI50 (NCI-H460) of the same compound?
Its GI50 is > 100 µM (inactive).

What about the GI50 (MDA-N) of the same compound?
The GI50 was > 100 µM (inactive).

And the GI50 (NCI-H522)?
Its GI50 is > 100 µM (inactive).

What about the GI50 (786-0) of the same compound?
Its GI50 is > 100 µM (inactive).

What about the GI50 (T47D) of the same compound?
The GI50 was > 100 µM (inactive).

And the GI50 (HCT-116)?
Its GI50 is > 100 µM (inactive).

And the GI50 (EKVX)?
The GI50 was > 100 µM (inactive).

And the GI50 (KM12)?
Its GI50 is > 100 µM (inactive).

And the GI50 (SW-620)?
The GI50 was > 100 µM (inactive).

And the GI50 (SK-OV-3)?
The GI50 was > 100 µM (inactive).

What about the GI50 (Malme-3M) of the same compound?
Its GI50 is > 100 µM (inactive).

And the GI50 (RPMI-8226)?
The GI50 was > 100 µM (inactive).

And the GI50 (SK-MEL-2)?
The GI50 was > 100 µM (inactive).

What about the GI50 (HCC 2998) of the same compound?
The GI50 was > 100 µM (inactive).

And the GI50 (MCF7)?
Its GI50 is > 100 µM (inactive).

What about the GI50 (SN12C) of the same compound?
The GI50 was > 100 µM (inactive).

And the GI50 (RXF 393)?
Its GI50 is 59.3 µM (inactive).

What about the GI50 (MDA-MB-231) of the same compound?
Its GI50 is > 100 µM (inactive).

What about the GI50 (CCRF-CEM) of the same compound?
The GI50 was > 100 µM (inactive).

What about the GI50 (K562) of the same compound?
The GI50 was > 100 µM (inactive).

What about the GI50 (HT-29) of the same compound?
The GI50 was > 100 µM (inactive).

What about the GI50 (IGROV-1) of the same compound?
The GI50 was > 100 µM (inactive).

What about the GI50 (A549) of the same compound?
The GI50 was > 100 µM (inactive).

And the GI50 (NCI-H226)?
Its GI50 is > 100 µM (inactive).

And the GI50 (OVCAR-3)?
The GI50 was > 100 µM (inactive).

What about the GI50 (SF-268) of the same compound?
The GI50 was > 100 µM (inactive).

And the GI50 (SK-MEL-28)?
The GI50 was > 100 µM (inactive).

And the GI50 (Hs-578T)?
The GI50 was > 100 µM (inactive).

What about the GI50 (MDA-MB-435) of the same compound?
Its GI50 is > 100 µM (inactive).

And the GI50 (MOLT-4)?
Its GI50 is > 100 µM (inactive).

And the GI50 (SF-295)?
Its GI50 is > 100 µM (inactive).

What about the GI50 (OVCAR-4) of the same compound?
The GI50 was > 100 µM (inactive).

And the GI50 (M14)?
The GI50 was > 100 µM (inactive).

What about the GI50 (UACC-257) of the same compound?
Its GI50 is > 100 µM (inactive).

What about the GI50 (U-251) of the same compound?
The GI50 was > 100 µM (inactive).

What about the GI50 (DU-145) of the same compound?
Its GI50 is 74.8 µM (inactive).

And the GI50 (BT-549)?
The GI50 was > 100 µM (inactive).

And the GI50 (UACC-62)?
Its GI50 is > 100 µM (inactive).

And the GI50 (HOP-62)?
The GI50 was > 100 µM (inactive).

And the GI50 (LOX IMVI)?
Its GI50 is > 100 µM (inactive).
